Data from patent US8871760B2, “[1,2,4]triazolo[3,4-C][1,4]oxazines as P2X7 modulators” (Roche Palo Alto LLC, priority 2009, dated 2014).

Biological target: T1, human P2X7 (UniProt Q99572)
T1 sequence (Q99572 1-595): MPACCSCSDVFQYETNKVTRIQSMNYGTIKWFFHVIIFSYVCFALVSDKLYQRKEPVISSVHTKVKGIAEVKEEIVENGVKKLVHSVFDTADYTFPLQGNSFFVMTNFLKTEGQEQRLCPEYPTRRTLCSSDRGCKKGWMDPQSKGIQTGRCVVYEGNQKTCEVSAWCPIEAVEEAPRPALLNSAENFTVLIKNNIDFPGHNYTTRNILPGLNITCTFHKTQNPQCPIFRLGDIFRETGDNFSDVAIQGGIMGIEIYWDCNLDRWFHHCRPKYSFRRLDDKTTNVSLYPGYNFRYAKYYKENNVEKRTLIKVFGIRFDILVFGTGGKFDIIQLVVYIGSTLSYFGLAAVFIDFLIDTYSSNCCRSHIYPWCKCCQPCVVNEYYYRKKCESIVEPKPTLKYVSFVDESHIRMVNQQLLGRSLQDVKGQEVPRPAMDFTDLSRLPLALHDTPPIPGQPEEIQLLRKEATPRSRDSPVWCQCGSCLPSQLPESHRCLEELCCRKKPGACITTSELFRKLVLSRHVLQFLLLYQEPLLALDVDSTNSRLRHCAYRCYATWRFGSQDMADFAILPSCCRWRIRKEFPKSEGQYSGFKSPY
Experiment: Intracellular Calcium Flux (FLIPR) Assay
Assay type: cell-based
Procedure: Intracellular Calcium Flux (FLIPR) Assay
Compound and Reagent Preparation
Stock solutions of compounds were prepared from powders as a 10 mM DMSO stock solution. These solutions were stored at RT during the two week period of these experiments to prevent freeze-thaw of the DMSO stocks. The DMSO stocks were added to the appropriate assay buffer at a concentration of 10 μM, and then diluted serially to the final concentrations that were tested. No observable precipitate was formed at any time during this process. The aqueous solutions of compounds as well as ATP (Sigma A7699) and BzATP (Sigma B6396) were prepared fresh for each day of experiment.
1321N1 cells stably expressing the full length human P2X7 gene (1321N1-hP2X7) and HEK293 cells stably expressing the full length rat P2X7 gene (HEK293-rP2X7) were obtained from the Roche Cell Culture Facility. 1321N1-hP2X7 cells were grown in Dulbecco's Modified Eagle's Medium (DMEM) high glucose supplemented with 10% FBS and […] G418. HEK293-rP2X7 cells were grown in DMEM/F-12 supplemented with 10% FBS, 1 mM CaCl2, 2 mM MgCl2, 2 mM L-Glutamine and […] G418. Cells were split such that they never became >70% confluent.
Intracellular Calcium Flux (FLIPR)
On the day prior to the experiment, 1321N1-hP2X7 or HEK293-rP2X7 cells were released into suspension with calcium-free PBS+Versene and washed by centrifugation with calcium-free PBS to remove the Versene. Cells were resuspended in growth medium at a density of 2.5×10^5 cells/mL and seeded into black walled, clear bottom 96 well plates (50,000 cells/well) approximately 18 hr prior to intracellular calcium flux experiments.
On the day of the experiment, plates were washed with FLIPR buffer (calcium- and magnesium-free Hank's Balanced Salt Solution (HBSS) supplemented with 10 mM Hepes, 2.5 mM probenecid and 2 mM calcium chloride) using a BIO-TEK 96 channel plate washer and incubated with […] fluo-3 dye at 37° C. for one hr. The dye was then removed by plate washing and the cells were allowed to equilibrate for 20 min at room temperature with antagonist or vehicle (FLIPR buffer). Agonist (100 μM BzATP final concentration for hP2X7; 5 μM BzATP final concentration or rP2X7) was added online with the FLIPR and fluorescence measurements made at 1 sec intervals for 60 sec followed by 3 sec intervals for a further 4 min (5 min total). A final addition of 5 μM ionomycin was made and the maximal BzATP-evoked fluorescence normalized to the maximal ionomycin-evoked fluorescence.

SMILES | pIC50
Cc1ccc(-c2ccnn(CCO)c2=O)cc1Nc1nnc2n1[C@H](c1ccc(F)cc1)COC2 [Compound 52, 4-{3-[(R)-5-(4-Fluoro-phenyl)-5,6-dihydro-8H-[1,2,4]triazolo[3,4-c][1,4]oxazin-3-ylamino]-4-methyl-phenyl}-2-(2-hydroxy-ethyl)-2H-pyridazin-3-one] | 8.09
O=c1[nH]ncc2c(Nc3nnc4n3[C@H](c3ccc(F)cc3)COC4)cccc12 [Compound 42, 5-[(R)-5-(4-Fluoro-phenyl)-5,6-dihydro-8H-[1,2,4]triazolo[3,4-c][1,4]oxazin-3-ylamino]-2H-phthalazin-1-one] | 6.135
Cc1ccc2ncccc2c1Nc1nnc2n1[C@H](c1ccc(F)cc1)COC2 [Compound 36, [(R)-5-(4-Fluoro-phenyl)-5,6-dihydro-8H-[1,2,4]triazolo[3,4-c][1,4]oxazin-3-yl]-(6-methyl-quinolin-5-yl)-amine] | 7.87
Cc1cc(Cl)c(OCCO)cc1Nc1nnc2n1C(c1cccc(F)c1)COC2 (stereo not drawn) [Compound 29, 2-{2-Chloro-5-[5-(3-fluoro-phenyl)-5,6-dihydro-8H-[1,2,4]triazolo[3,4-c][1,4]oxazin-3-ylamino]-4-methyl-phenoxy}-ethanol] | 7.13
Cc1ccc(-c2cc(C)n(C[C@@H](O)CO)n2)cc1Nc1nnc2n1[C@H](c1ccc(F)cc1)COC2 [Compound 32, (R)-3-(3-{3-[(R)-5-(4-Fluoro-phenyl)-5,6-dihydro-8H-[1,2,4]triazolo[3,4-c][1,4]oxazin-3-ylamino]-4-methyl-phenyl}-5-methyl-pyrazol-1-yl)-propane-1,2-diol] | 7.5475
Cc1cc(-c2ccc(Cl)c(Nc3nnc4n3[C@H](c3ccc(F)cc3)COC4)c2)nn1CCO [Compound 40, 2-(3-{4-Chloro-3-[(R)-5-(4-fluoro-phenyl)-5,6-dihydro-8H-[1,2,4]triazolo[3,4-c][1,4]oxazin-3-ylamino]-phenyl}-5-methyl-pyrazol-1-yl)-ethanol] | 7.54
Cc1ccc(-c2ccc(=O)[nH]n2)cc1Nc1nnc2n1[C@H](c1ccc(F)cc1)COC2 [Compound 41, 6-{3-[(R)-5-(4-Fluoro-phenyl)-5,6-dihydro-8H-[1,2,4]triazolo[3,4-c][1,4]oxazin-3-ylamino]-4-methyl-phenyl}-2H-pyridazin-3-one] | 7.665
COC[C@H](O)Cn1nc(-c2ccc(C)c(Nc3nnc4n3[C@H](c3ccc(F)cc3)COC4)c2)cc1C [Compound 33, (R)-1-(3-{3-[(R)-5-(4-Fluoro-phenyl)-5,6-dihydro-8H-[1,2,4]triazolo[3,4-c][1,4]oxazin-3-ylamino]-4-methyl-phenyl}-5-methyl-pyrazol-1-yl)-3-methoxy-propan-2-ol] | 7.56
Cc1cc(Cl)c(OCCO)cc1Nc1nnc2n1[C@H](c1cccc(F)c1)COC2 [Compound 44, 2-{2-Chloro-5-[(R)-5-(3-fluoro-phenyl)-5,6-dihydro-8H-[1,2,4]triazolo[3,4-c][1,4]oxazin-3-ylamino]-4-methyl-phenoxy}-ethanol] | 7.6
Cc1ccc(-c2cc(C)n(C[C@@H](C)O)n2)cc1Nc1nnc2n1[C@H](c1ccc(F)cc1)COC2 [Compound 31, (R)-1-(3-{3-[(R)-5-(4-Fluoro-phenyl)-5,6-dihydro-8H-[1,2,4]triazolo[3,4-c][1,4]oxazin-3-ylamino]-4-methyl-phenyl}-5-methyl-pyrazol-1-yl)-propan-2-ol] | 7.45
Cc1ccc2ncccc2c1Nc1nnc2n1[C@H](c1ccccc1)COC2 [Compound 11, (6-Methyl-quinolin-5-yl)-((R)-5-phenyl-5,6-dihydro-8H-[1,2,4]triazolo[3,4-c][1,4]oxazin-3-yl)-amine] | 7.442
Cc1ccc(-c2cc(C)n(C[C@H](O)CO)n2)cc1Nc1nnc2n1[C@H](c1ccc(F)cc1)COC2 [Compound 35, (S)-3-(3-{3-[(R)-5-(4-Fluoro-phenyl)-5,6-dihydro-8H-[1,2,4]triazolo[3,4-c][1,4]oxazin-3-ylamino]-4-methyl-phenyl}-5-methyl-pyrazol-1-yl)-propane-1,2-diol] | 7.755
Cc1ccc(-c2ccn[nH]c2=O)cc1Nc1nnc2n1[C@H](c1ccc(F)cc1)COC2 [Compound 43, 4-{3-[(R)-5-(4-Fluoro-phenyl)-5,6-dihydro-8H-[1,2,4]triazolo[3,4-c][1,4]oxazin-3-ylamino]-4-methyl-phenyl}-2H-pyridazin-3-one] | 8.28

Now from value to molecule:

pIC50 | SMILES
7.25 | COc1cc(Br)c(Nc2nnc3n2C(c2ccccc2)CCC3)cc1OC (stereo not drawn) [Compound 1, (2-Bromo-4,5-dimethoxy-phenyl)-(5-phenyl-5,6,7,8-tetrahydro-[1,2,4]triazolo[4,3-a]pyridin-3-yl)-amine]
5.17 | CCc1c(Nc2nnc3n2[C@@H](c2ccc(F)cc2)CCC3)ccc2ncccc12 [Compound 9, (5-Ethyl-quinolin-6-yl)-[(R)-5-(4-fluoro-phenyl)-5,6,7,8-tetrahydro-[1,2,4]triazolo[4,3-a]pyridin-3-yl]-amine]
6.99 | Cc1cc(Cl)c(OCCO)cc1Nc1nnc2n1C(c1ccc(F)cc1)CCC2 (stereo not drawn) [Compound 6, 2-{2-Chloro-5-[5-(4-fluoro-phenyl)-5,6,7,8-tetrahydro-[1,2,4]triazolo[4,3-a]pyridin-3-ylamino]-4-methyl-phenoxy}-ethanol]
7.57 | O=c1[nH]ncc2c(Nc3nnc4n3[C@H](c3ccc(F)cc3)COC4)c(Br)ccc12 [Compound 48, 6-Bromo-5-[(R)-5-(4-fluoro-phenyl)-5,6-dihydro-8H-[1,2,4]triazolo[3,4-c][1,4]oxazin-3-ylamino]-2H-phthalazin-1-one]
8.2 | O=c1[nH]nccc1-c1ccc(Br)c(Nc2nnc3n2[C@H](c2ccc(F)cc2)COC3)c1 [Compound 49, 4-{4-Bromo-3-[(R)-5-(4-fluoro-phenyl)-5,6-dihydro-8H-[1,2,4]triazolo[3,4-c][1,4]oxazin-3-ylamino]-phenyl}-2H-pyridazin-3-one]
7.4167 | COc1cc(Br)c(Nc2nnc3n2C(c2ccc(F)cc2)C[S+]([O-])C3)cc1OC (stereo not drawn) [Compound 16, (2-Bromo-4,5-dimethoxy-phenyl)-[5-(4-fluoro-phenyl)-7-oxo-5,6,7,8-tetrahydro-7λ^4-[1,2,4]triazolo[3,4-c][1,4]thiazin-3-yl]-amine]
8.16 | Cc1ccc(-c2ccnn(C)c2=O)cc1Nc1nnc2n1[C@H](c1ccc(F)cc1)CSC2 [Compound 51, 4-{3-[(R)-5-(4-Fluoro-phenyl)-5,6-dihydro-8H-[1,2,4]triazolo[3,4-c][1,4]thiazin-3-ylamino]-4-methyl-phenyl}-2-methyl-2H-pyridazin-3-one]
6.9 | COc1cc(C)c(Nc2nnc3n2C(C)(c2ccc(F)cc2)COC3)cc1OC (stereo not drawn) [Compound 23, (4,5-Dimethoxy-2-methyl-phenyl)-[5-(4-fluoro-phenyl)-5-methyl-5,6-dihydro-8H-[1,2,4]triazolo[3,4-c][1,4]oxazin-3-yl]-amine]
7.625 | COc1cc(Br)c(Nc2nnc3n2C(c2ccc(F)cc2)CSC3)cc1OC (stereo not drawn) [Compound 10, (2-Bromo-4,5-dimethoxy-phenyl)-[5-(4-fluoro-phenyl)-5,6-dihydro-8H-[1,2,4]triazolo[3,4-c][1,4]thiazin-3-yl]-amine]
7.693 | CCc1c(Nc2nnc3n2[C@H](c2ccc(F)cc2)CCC3)ccc2ncccc12 [Compound 8, (5-Ethyl-quinolin-6-yl)-[(S)-5-(4-fluoro-phenyl)-5,6,7,8-tetrahydro-[1,2,4]triazolo[4,3-a]pyridin-3-yl]-amine]
6.76 | Cc1ccc2c(Nc3nnc4n3[C@H](c3ccc(F)cc3)COC4)cccc2n1 [Compound 27, [(R)-5-(4-Fluoro-phenyl)-5,6-dihydro-8H-[1,2,4]triazolo[3,4-c][1,4]oxazin-3-yl]-(2-methyl-quinolin-5-yl)-amine]
